Test results from patent US11491162B2, “Combination of quinoline-4-carboxamides and benzonaphthyridine derivatives as antimalarial drug combination” (Merck Patent GmbH, priority 2018, dated 2022).
Structures can show the parent of a compound that is named as a salt.

Tests used:
[1] = biological target: T1, P-gp (Homo sapiens, UniProt P08183); assay: Inhibition of Pgp-mediated efflux of M1 in Caco-2 monolayer; format: cell-based; settings: M1 as substrate
T1 construct: In Caco-2 monolayer cells, M1 is effluxed by P-gp transporters with a ratio of 18.2; endogenous in cells; host or cells: Caco-2 cells, differentiated monolayers on polycarbonate filter inserts

[2] = tested on: P. falciparum Pf3D7^0087/N9; assay: In vivo SCID mouse model, oral therapeutic efficacy; design: species or system Plasmodium falciparum; settings: for % control: day 7; for Activity: day 7 vs untreated control
Protocol: Compound efficacy was assessed against the Plasmodium falciparum strain Pf3D7^0087/N9 in vivo. Mice are infected intravenously with parasitized red blood cells on day 0. Experimental mice are generally treated at day 3, 4, 5, and 6 post-infection with an oral dose of the compound (single or 4-day oral dosing regimen) and are compared to an infected control group for reduction in parasitemia on day 7 (Maria Belen Jimenez-Díaz, Teresa Mulet, Sara Viera, Vanessa Gomez, Helen Garuti, Javier Ibanez, Angela Alvarez-Doval, Leonard D. Shultz, Antonio Martínez, Domingo Gargallo-Viola, and Inigo Angulo-Barturen, Improved Murine Model of Malaria Using Plasmodium falciparum Competent Strains and Non-Myelodepleted NOD-scid IL2Rgammanull Mice Engrafted with Human Erythrocytes, Antimicrob Agents Chemother. 2009, 53:4533).
PYRO and M1 were solubilized in a vehicle consisting of 70% Tween-80 and 30% ethanol, followed by a 10-fold dilution in H2O.

[3] = PYRO 4 × 1 MG/KG oral, SCID mice, Table 2
[4] = PYRO 4 × 3 MG/KG oral, SCID mice, Table 2
[5] = PYRO 4 × 9 MG/KG oral, SCID mice, Table 2
[6] = Table 4 entry 3: M1 0 mg/kg, PYRO 4 × 3 mg/kg, oral
[7] = Table 4 entry 3: M1 0 mg/kg, PYRO 4 × 3 mg/kg, oral, LLQ = <0.01% parasitemia
[8] = Table 4 entry 5: M1 0 mg/kg, PYRO 4 × 9 mg/kg, oral
[9] = Table 4 entry 5: M1 0 mg/kg, PYRO 4 × 9 mg/kg, oral, LLQ = <0.01% parasitemia
[10] = Table 4 entry 7: M1 0 mg/kg, PYRO 4 × 30 mg/kg, oral
[11] = Table 4 entry 7: M1 0 mg/kg, PYRO 4 × 30 mg/kg, oral, LLQ = <0.01% parasitemia

T1 sequence (P08183 whole entry): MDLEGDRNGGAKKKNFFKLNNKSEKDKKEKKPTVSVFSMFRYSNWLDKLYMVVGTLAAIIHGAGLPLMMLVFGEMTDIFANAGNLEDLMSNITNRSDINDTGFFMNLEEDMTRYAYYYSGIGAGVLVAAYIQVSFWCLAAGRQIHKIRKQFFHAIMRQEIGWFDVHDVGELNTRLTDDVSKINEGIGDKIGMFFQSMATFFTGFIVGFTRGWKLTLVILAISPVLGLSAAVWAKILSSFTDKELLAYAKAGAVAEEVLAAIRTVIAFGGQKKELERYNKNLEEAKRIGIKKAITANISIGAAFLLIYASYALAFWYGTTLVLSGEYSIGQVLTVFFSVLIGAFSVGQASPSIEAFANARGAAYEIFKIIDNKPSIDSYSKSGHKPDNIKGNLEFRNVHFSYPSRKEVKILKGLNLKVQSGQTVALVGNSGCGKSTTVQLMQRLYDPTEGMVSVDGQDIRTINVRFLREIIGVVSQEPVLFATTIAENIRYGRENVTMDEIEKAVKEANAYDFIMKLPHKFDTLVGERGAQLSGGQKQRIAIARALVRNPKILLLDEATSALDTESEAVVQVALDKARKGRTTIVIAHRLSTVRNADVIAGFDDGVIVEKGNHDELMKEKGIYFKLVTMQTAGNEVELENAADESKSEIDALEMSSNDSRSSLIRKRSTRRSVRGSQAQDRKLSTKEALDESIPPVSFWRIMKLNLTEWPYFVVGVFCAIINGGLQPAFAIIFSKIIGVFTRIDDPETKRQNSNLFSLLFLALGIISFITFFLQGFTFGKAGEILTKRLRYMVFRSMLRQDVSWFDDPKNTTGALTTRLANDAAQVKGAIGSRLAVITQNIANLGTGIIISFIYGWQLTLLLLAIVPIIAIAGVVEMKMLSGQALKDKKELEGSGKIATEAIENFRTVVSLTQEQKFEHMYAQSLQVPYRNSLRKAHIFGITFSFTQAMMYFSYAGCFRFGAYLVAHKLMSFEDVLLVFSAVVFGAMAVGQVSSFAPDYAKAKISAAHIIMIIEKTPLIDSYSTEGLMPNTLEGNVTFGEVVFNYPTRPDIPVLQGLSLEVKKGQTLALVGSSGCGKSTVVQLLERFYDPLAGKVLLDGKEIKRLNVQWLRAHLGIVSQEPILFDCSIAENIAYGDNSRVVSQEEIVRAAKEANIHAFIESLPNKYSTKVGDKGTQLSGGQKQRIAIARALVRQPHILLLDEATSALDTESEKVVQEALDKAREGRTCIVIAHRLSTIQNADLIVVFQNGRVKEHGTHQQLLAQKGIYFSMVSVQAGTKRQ

Structure (SMILES): COc1ccc2nc3cc(Cl)ccc3c(Nc3cc(CN4CCCC4)c(O)c(CN4CCCC4)c3)c2n1 [PYRO, pyronaridine tetraphosphate salt]
- concentrations at which PYRO inhibited Pgp-mediated efflux of M1 [1]: greater than 10 μM
- % PARASITEMIA day 3 post infection [2, 3]: 0.63%
- % PARASITEMIA day 4 post infection [2, 3]: 1.21%
- % PARASITEMIA day 5 post infection [2, 3]: 3.14%
- % PARASITEMIA day 6 post infection [2, 3]: 4.53%
- % PARASITEMIA day 7 post infection [2, 3]: 7.55%
- % control ([2]; PYRO 4 × 1 MG/KG oral, SCID mice): 82.6%
- Activity ([2]; PYRO 4 × 1 MG/KG oral, SCID mice, 1 mg/kg): 17.4%
- Activity ([2]; PYRO 4 × 1 MG/KG oral, SCID mice, listed as pyronaridine, 1 mg/kg): 17%
- % PARASITEMIA day 3 post infection [2, 4]: 0.71%
- % PARASITEMIA day 4 post infection [2, 4]: 1%
- % PARASITEMIA day 5 post infection [2, 4]: 0.44%
- % PARASITEMIA day 6 post infection [2, 4]: 0.25%
- % PARASITEMIA day 7 post infection [2, 4]: 0.04%
- % control ([2]; PYRO 4 × 3 MG/KG oral, SCID mice): 0.4%
- Activity ([2]; PYRO 4 × 3 MG/KG oral, SCID mice, 3 mg/kg): 99.6%
- Activity ([2]; PYRO 4 × 3 MG/KG oral, SCID mice, listed as pyronaridine, 3 mg/kg): 99.6%
- % PARASITEMIA day 3 post infection [2, 5]: 0.7%
- % PARASITEMIA day 4 post infection [2, 5]: 0.28%
- % PARASITEMIA day 5 post infection [2, 5]: 0.15%
- % PARASITEMIA day 6 post infection [2, 5]: 0.063%
- % PARASITEMIA day 7 post infection ([2]; PYRO 4 × 9 MG/KG oral, SCID mice, Table 2, LLQ = <0.01% parasitemia, 9 mg/kg): <LLQ
- % PARASITEMIA day 7 post infection ([2]; PYRO 4 × 9 MG/KG oral, SCID mice, Table 2, LLQ = <0.01% parasitemia, listed as pyronaridine, 9 mg/kg): parasite-free
- % control ([2]; PYRO 4 × 9 MG/KG oral, SCID mice, LLQ = <0.01% parasitemia): <LLQ
- Activity ([2]; PYRO 4 × 9 MG/KG oral, SCID mice, 9 mg/kg): 100%
- Activity ([2]; PYRO 4 × 9 MG/KG oral, SCID mice, listed as pyronaridine, 9 mg/kg): > 99.9%
- % PARASITEMIA day 3 post infection [2, 6]: 1.16%
- % PARASITEMIA day 4 post infection [2, 6]: 0.67%
- % PARASITEMIA day 5 post infection [2, 6]: 0.08%
- % PARASITEMIA day 6 post infection [2, 6]: 0.01%
- % PARASITEMIA day 7 post infection [2, 7]: <LLQ
- % PARASITEMIA day 10 post infection [2, 7]: <LLQ
- % PARASITEMIA day 3 post infection [2, 8]: 1.09%
- % PARASITEMIA day 4 post infection [2, 8]: 0.34%
- % PARASITEMIA day 5 post infection [2, 8]: 0.05%
- % PARASITEMIA day 6 post infection [2, 9]: <LLQ
- % PARASITEMIA day 7 post infection [2, 9]: <LLQ
- % PARASITEMIA day 10 post infection [2, 9]: <LLQ
- % PARASITEMIA day 3 post infection [2, 10]: 1.13%
- % PARASITEMIA day 4 post infection [2, 10]: 0.14%
- % PARASITEMIA day 5 post infection [2, 10]: 0.02%
- % PARASITEMIA day 6 post infection [2, 10]: 0.01%
- % PARASITEMIA day 7 post infection [2, 11]: <LLQ
- % PARASITEMIA day 10 post infection [2, 11]: <LLQ
